Counter-ions that a name gives are not always drawn.
The molecules below were run on Acinetobacter baumannii ATCC17961 (assay: Antimicrobial susceptibility testing: 90% growth inhibitory concentration (IC90) determination). Conditions: Acinetobacter baumannii, ATCC17961, 16 h, 90% growth inhibitory concentration, Acinetobacter baumannii ATCC17961, Iso-Sensitest broth, OD 600 nm over 16 h; read-out: ATCC 17961 IC90.
Type: cell-based
Procedure, shortened: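 A. baumannii ATCC17961 at ~5×10^5 CFU/ml in Iso-Sensitest broth exposed to 10-point twofold dilutions (e.g. 50–0.097 μM final), 35±2° C. OD600 read every 20 minutes over 16h; IC50 and IC90 derived from inhibition during logarithmic growth.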

| Structure (SMILES) | IC90 |
| --- | --- |
| Cn1cc(-c2ccc(-c3cnc(C(=O)Nc4ccc(C(=O)N5CCN(C(=O)C6CCNCC6)CC5)c(Cl)c4)n3C)c(F)c2F)cn1 [Example E20, N-[3-chloro-4-[4-(piperidine-4-carbonyl)piperazine-1-carbonyl]phenyl]-5-[2,3-difluoro-4-(1-methyl-pyrazol-4-yl)phenyl]-1-methyl-imidazole-2-carboxamide] | 530 nM |
| COCCn1cc(-c2ccc(-c3cnc(C(=O)Nc4ccc(C(=O)N5CCN(C(=O)C6CCNCC6)CC5)c(Cl)c4)n3C)c(F)c2F)cn1 [Example E21, N-[3-chloro-4-[4-(piperidine-4-carbonyl)piperazine-1-carbonyl]phenyl]-5-[2,3-difluoro-4-[1-(2-methoxyethyl)pyrazol-4-yl]phenyl]-1-methyl-imidazole-2-carboxamide] | 290 nM |
| COCCn1ncc(-c2ccc(-c3cnc(C(=O)Nc4ccc(C(=O)N[C@H]5[C@@H]6CN(C(=O)N[C@@H]7CNC[C@H]7O)C[C@@H]65)c(Cl)c4)n3C)c(F)c2F)c1C [Example E22, (1S,5R)-6-[[2-chloro-4-[[5-[2,3-difluoro-4-[1-(2-methoxyethyl)-5-methyl-pyrazol-4-yl]phenyl]-1-methyl-imidazole-2-carbonyl]amino]benzoyl]amino]-N-[(3R,4R)-4-hydroxypyrrolidin-3-yl]-3-azabicyclo[3.1.0] hexane-3-carboxamide] | 59 nM |
| Cn1c(-c2ccc(-c3cn[nH]c3)cc2)cnc1C(=O)Nc1ccc(C(=O)N2CCN(C(=O)C3CCNCC3)CC2)c(Cl)c1 [Example E23, N-[3-chloro-4-[4-(piperidine-4-carbonyl)piperazine-1-carbonyl]phenyl]-1-methyl-5-[4-(1H-pyrazol-4-yl)phenyl] imidazole-2-carboxamide] | 140 nM |
| Cn1c(-c2ccc(-c3cn(CCC(N)=O)nc3C(F)(F)F)c(F)c2F)cnc1C(=O)Nc1ccc(C(=O)N2CCN(C(=O)C3CC[N+](C)(C)CC3)CC2)c(Cl)c1 [Example F1, 5-[4-[1-(3-amino-3-oxo-propyl)-3-(trifluoromethyl)pyrazol-4-yl]-2,3-difluoro-phenyl]-N-[3-chloro-4-[4-(1,1-dimethylpiperidin-1-ium-4-carbonyl)piperazine-1-carbonyl]phenyl]-1-methyl-imidazole-2-carboxamide; formate] | 330 nM |
| COCCn1ncc(-c2ccc(-c3cnc(C(=O)Nc4ccc(C(=O)N5CCN(C(=O)C6CC[N+](C)(C)CC6)CC5)c(Cl)c4)n3C)c(Cl)c2F)c1C [Example F2, N-[3-chloro-4-[4-(1,1-dimethylpiperidin-1-ium-4-carbonyl)piperazine-1-carbonyl]phenyl]-5-[2-chloro-3-fluoro-4-[1-(2-methoxyethyl)-5-methyl-pyrazol-4-yl]phenyl]-1-methyl-imidazole-2-carboxamide; formate] | 65 nM |
| COCCn1ncc(-c2ccc(-c3cnc(C(=O)Nc4ccc(C(=O)N5CCN(C(=O)C6CC[N+](C)(C)CC6)CC5)c(Cl)c4)n3C)c(C)c2F)c1C [Example F3, N-[3-chloro-4-[4-(1,1-dimethylpiperidin-1-ium-4-carbonyl)piperazine-1-carbonyl]phenyl]-5-[3-fluoro-4-[1-(2-methoxyethyl)-5-methyl-pyrazol-4-yl]-2-methyl-phenyl]-1-methyl-imidazole-2-carboxamide; formate] | 120 nM |
| Cc1c(-c2ccc(-c3cnc(C(=O)Nc4ccc(C(=O)N5CCN(C(=O)[C@@H]6C[C@@H](O)C[N+]6(C)C)CC5)c(Cl)c4)n3C)c(F)c2F)cnn1CCC(C)(C)O [Example F4, N-[3-chloro-4-[4-[(2S,4R)-4-hydroxy-1,1-dimethyl-pyrrolidin-1-ium-2-carbonyl]piperazine-1-carbonyl]phenyl]-5-[2,3-difluoro-4-[1-(3-hydroxy-3-methyl-butyl)-5-methyl-pyrazol-4-yl]phenyl]-1-methyl-imidazole-2-carboxamide; formate] | 830 nM |
| CNC(=O)Cn1cc(-c2ccc(-c3cnc(C(=O)Nc4ccc(C(=O)N5CCN(C(=O)[C@@H]6C[C@@H](O)C[N+]6(C)C)CC5)c(Cl)c4)n3C)c(F)c2F)c(C)n1 [Example F5, N-[3-chloro-4-[4-[(2S,4R)-4-hydroxy-1,1-dimethyl-pyrrolidin-1-ium-2-carbonyl]piperazine-1-carbonyl]phenyl]-5-[2,3-difluoro-4-[3-methyl-1-[2-(methylamino)-2-oxo-ethyl]pyrazol-4-yl]phenyl]-1-methyl-imidazole-2-carboxamide; formate] | 280 nM |
| Cn1c(-c2ccc(-c3cn(CCOC(F)F)nc3C(F)(F)F)c(F)c2F)cnc1C(=O)Nc1ccc(C(=O)N2CCN(C(=O)C3CC[N+](C)(C)CC3)CC2)c(Cl)c1 [Example F6, N-[3-chloro-4-[4-(1,1-dimethylpiperidin-1-ium-4-carbonyl)piperazine-1-carbonyl]phenyl]-5-[4-[1-[2-(difluoromethoxy)ethyl]-3-(trifluoro-methyl)pyrazol-4-yl]-2,3-difluoro-phenyl]-1-methyl-imidazole-2-carboxamide; formate] | 570 nM |
| CC(CO)Cn1cc(-c2ccc(-c3cnc(C(=O)Nc4ccc(C(=O)N5CCN(C(=O)C6CC[N+](C)(C)CC6)CC5)c(Cl)c4)n3C)c(F)c2F)c(C(F)(F)F)n1 (stereo not shown) [Example F7, N-[3-chloro-4-[4-(1,1-dimethylpiperidin-1-ium-4-carbonyl)piperazine-1-carbonyl]phenyl]-5-[2,3-difluoro-4-[1-(3-hydroxy-2-methyl-propyl)-3-(trifluoro-methyl)pyrazol-4-yl]phenyl]-1-methyl-imidazole-2-carboxamide; formate] | 520 nM |
| Cc1nn(CCOC(F)F)cc1-c1ccc(-c2cnc(C(=O)Nc3ccc(C(=O)N4CCN(C(=O)[C@@H]5C[C@@H](O)C[N+]5(C)C)CC4)c(Cl)c3)n2C)c(F)c1F [Example F9, N-[3-chloro-4-[4-[(2S,4R)-4-hydroxy-1,1-dimethyl-pyrrolidin-1-ium-2-carbonyl]piperazine-1-carbonyl]phenyl]-5-[4-[1-[2-(difluoro-methoxy)ethyl]-3-methyl-pyrazol-4-yl]-2,3-difluoro-phenyl]-1-methyl-imidazole-2-carboxamide; formate] | 160 nM |
| Cc1c(-c2ccc(-c3cnc(C(=O)Nc4ccc(C(=O)N5CCN(C(=O)[C@@H]6C[C@@H](O)C[N+]6(C)C)CC5)c(Cl)c4)n3C)c(F)c2F)cnn1CCOC(F)F [Example F10, N-[3-chloro-4-[4-[(2S,4R)-4-hydroxy-1,1-dimethyl-pyrrolidin-1-ium-2-carbonyl]piperazine-1-carbonyl]phenyl]-5-[4-[1-[2-(difluoro-methoxy)ethyl]-5-methyl-pyrazol-4-yl]-2,3-difluoro-phenyl]-1-methyl-imidazole-2-carboxamide; formate] | 75 nM |
| COCCn1cc(-c2ccc(-c3cnc(C(=O)Nc4ccc(C(=O)N5CCN(C(=O)[C@@H]6C[C@@H](O)C[N+]6(C)C)CC5)c(Cl)c4)n3C)c(F)c2F)c(C(C)C)n1 [Example F11, N-[3-chloro-4-[4-[(2S,4R)-4-hydroxy-1,1-dimethyl-pyrrolidin-1-ium-2-carbonyl]piperazine-1-carbonyl]phenyl]-5-[2,3-difluoro-4-[3-isopropyl-1-(2-methoxyethyl)pyrazol-4-yl]phenyl]-1-methyl-imidazole-2-carboxamide; formate] | 800 nM |
| COCCn1ncc(-c2ccc(-c3cnc(C(=O)Nc4ccc(C(=O)N5CCN(C(=O)[C@@H]6C[C@@H](O)C[N+]6(C)C)CC5)c(Cl)c4)n3C)c(F)c2F)c1C(F)F [Example F12, N-[3-chloro-4-[4-[(2S,4R)-4-hydroxy-1,1-dimethyl-pyrrolidin-1-ium-2-carbonyl]piperazine-1-carbonyl]phenyl]-5-[4-[5-(difluoromethyl)-1-(2-methoxyethyl)pyrazol-4-yl]-2,3-difluoro-phenyl]-1-methyl-imidazole-2-carboxamide; formate] | 170 nM |
| COCCn1ncc(-c2ccc(-c3cnc(C(=O)Nc4ccc(C(=O)N5CCN(C(=O)[C@@H]6C[C@@H](O)C[N+]6(C)C)CC5)c(C)c4)n3C)c(F)c2F)c1C [Example F14, 5-[2,3-difluoro-4-[1-(2-methoxyethyl)-5-methyl-pyrazol-4-yl]phenyl]-N-[4-[4-[(2S,4R)-4-hydroxy-1,1-dimethyl-pyrrolidin-1-ium-2-carbonyl]piperazine-1-carbonyl]-3-methyl-phenyl]-1-methyl-imidazole-2-carboxamide; 2,2,2-trifluoroacetate] | 100 nM |
| COCCn1ncc(-c2ccc(-c3cnc(C(=O)Nc4ccc(C(=O)N5CCN(C(=O)[C@@H]6C[C@@H](O)C[N+]6(C)C)CC5)c(Cl)c4)n3C)c(F)c2F)c1C [Example F15, N-[3-chloro-4-[4-[(2S,4R)-4-hydroxy-1,1-dimethyl-pyrrolidin-1-ium-2-carbonyl]piperazine-1-carbonyl]phenyl]-5-[2,3-difluoro-4-[1-(2-methoxyethyl)-5-methyl-pyrazol-4-yl]phenyl]-1-methyl-imidazole-2-carboxamide; 2,2,2-trifluoroacetate] | 55 nM |
| Cc1nn(CCCO)cc1-c1ccc(-c2cnc(C(=O)Nc3ccc(C(=O)N4CCN(C(=O)[C@@H]5C[C@@H](O)C[N+]5(C)C)CC4)c(Cl)c3)n2C)c(F)c1F [Example F16, N-[3-chloro-4-[4-[(2S,4R)-4-hydroxy-1,1-dimethyl-pyrrolidin-1-ium-2-carbonyl]piperazine-1-carbonyl]phenyl]-5-[2,3-difluoro-4-[1-(3-hydroxypropyl)-3-methyl-pyrazol-4-yl]phenyl]-1-methyl-imidazole-2-carboxamide; formate] | 240 nM |
| Cc1c(-c2ccc(-c3cnc(C(=O)Nc4ccc(C(=O)N5CCN(C(=O)[C@@H]6C[C@@H](O)C[N+]6(C)C)CC5)c(Cl)c4)n3C)c(F)c2F)cnn1CCCO [Example F17, N-[3-chloro-4-[4-[(2S,4R)-4-hydroxy-1,1-dimethyl-pyrrolidin-1-ium-2-carbonyl]piperazine-1-carbonyl]phenyl]-5-[2,3-difluoro-4-[1-(3-hydroxypropyl)-5-methyl-pyrazol-4-yl]phenyl]-1-methyl-imidazole-2-carboxamide; formate] | 270 nM |
